Like-named read-outs stand apart in the source and are kept apart here.
Experiments:
[1] = molecular target: PARP1 (Homo sapiens (Human), UniProt P09874); assay: PARP fluorescence anisotropy binding assay, PARP1
Method: Recombinant full length 6HIS tagged PARP1 protein was diluted to 6 nM with 50 mM Tris pH 8, 0.001% Triton X100, 10 mM MgCl2, 150 mM NaCl and incubated for four hours with an equivalent volume of 2 nM fluorescent probe diluted with 50 mM Tris pH 8, 0.001% Triton X100, 10 mM MgCl2, 150 mM NaCl. The final DMSO concentration of the probe was kept below 1% (v/v).

[2] = molecular target: PARP3 (Homo sapiens (Human), UniProt Q9Y6F1); assay: PARP fluorescence anisotropy binding assay, PARP3
Method: Recombinant full length PARP3 protein was diluted to 100 nM with 50 mM Tris pH 8, 0.001% Triton X100, 10 mM MgCl2, 150 mM NaCl and incubated for four hours with an equivalent volume of 6 nM fluorescent probe diluted with 50 mM Tris pH 8, 0.001% Triton X100, 10 mM MgCl2, 150 mM NaCl. The final DMSO concentration of the probe was kept below 1% (v/v).

[3] = molecular target: PARP6 (Homo sapiens (Human), UniProt Q2NL67); assay: PARP fluorescence anisotropy binding assay, PARP6
Method: (§1) Recombinant full length GST tagged PARP6 protein was diluted to 160 nM with 50 mM Tris pH 8, 0.001% Triton X100, 10 mM MgCl2, 150 mM NaCl and incubated for four hours with an equivalent volume of 6 nM fluorescent probe diluted with 50 mM Tris pH 8, 0.001% Triton X100, 10 mM MgCI2, 150 mM NaCl. The final DMSO concentration of the probe was kept below 1% (v/v).
Fluorescence anisotropy of the probe when bound to the proteins was measured using a BMG Pherastar FSX® in the presence of test compounds or solvent control and the effect on anisotropy determined. % inhibition values for different test compound concentrations were calculated and fitted to a four parameter logistic plot in order to determine the IC50 value. Where necessary, the compound K, can be determined from the IC50 value using a Munson Rodbard equation defined in Anal Biochem. 1980 Sep. 1; 107(1):220-39 and is based on the known KD of the probe binding to the relevant PARP protein

[4] = system: MDR1 and BCRP; assay: In vitro human transporter efflux (MDCK-MDR1-BCRP); settings: human, pH 7.4
Method: MDCKII cells expressing MDR1 and BCRP were seeded onto polyethylene membranes in 96-well Transwell insert systems at a density to form a confluent cell monolayer. […] The final percent volume of the organic solvent was less than 1%. Permeation of the test compounds from A to B direction and from B to A direction was determined over a 90-min incubation at 37° C. and 5% CO2 with a relative humidity of 95%. At the end of the incubation, samples from the apical and basolateral side were taken and then precipitated with cold acetonitrile containing internal standard. After centrifugation at 4000 rpm, the supernatant was diluted with 0.1% formic acid aqueous solution and quantified by LC-MS/MS. The integrity of the cell monolayers was confirmed by using the marker Lucifer yellow.
The permeability coefficient (1×10-6 cm/s) was calculated using the following equation
(1) The Efflux Ratio was Calculated Using the Following Equation
Efflux ratio=Papp(B to A)/Papp(A to B)
(2) where dCr/dt is the cumulative concentration of the compound in the receiver chamber as a function of time (in μM/s); Vr is the solution volume in the receiver chamber (0.1 ml on the apical side and 0.3 ml on the basolateral side); A is the surface area for the transport, that is, 0.11 cm2 for the area of the monolayer; and C0 is the initial concentration in the donor chamber (in μM).

[5] = Determination of Kpuu in rat; assay type: in vivo, Han Wistar rats; settings: intravenous infusion; for Kp uu at 4 h: Han Wistar, rat, brain and plasma (unbound brain-to-plasma ratio), 2 µmols/kg/h; for Rat Kpuu: 4 h, brain/plasma unbound
Method: The fraction unbound was determined using the RED Device.
Compounds were prepared as 10 mM solutions in DMSO. […] If less than 9 test compounds were included then the addition volume of blank DMSO was added to make up volume to 40 uL.
Frozen plasma was thawed in a water bath at 37° C. Plasma was then centrifuged for 2 minutes at 4,000 rpm to remove clots and collect supernatant into a fresh tube. The pH of the plasma was checked and only used if within the range of pH 7 to pH 8. 3 μL of the working solution of each cassette was added to 597 μL of blank plasma and vortexed for 5 minutes at 1000 rpm. The final percent volume of organic solvent is 0.5% and the final concentration for test compound was 5 μM. Immediately transfer 50 μL of the spiked plasma suspension to a 96-well plate to act as T=0 control sample. The samples are treated the same as the samples after incubation. The remaining plasma is kept at 37° C. prior to starting the dialysis.
Place inserts open end up into the wells of the base plate. Add 300 μL of spiked plasma sample into the sample chamber, indicated by the red ring. Add 500 μL of phosphate buffer (pH 7.4) to the buffer chamber. Cover the unit with gas permeable lid and incubate for 18 hours at 37° C. at 300 rpm with 5% CO2 on an orbital shaker in the CO2 incubator. At the end of incubation, remove lid and pipette 50 μL of post-dialysis samples from both buffer and plasma chambers into separated 96-well plate for analysis, respectively.
Samples were matrix matched by adding 50 μL of blank rat plasma to the buffer samples and an equal volume of PBS to the collected plasma samples and vortexed to mix. 400 μL of acetonitrile containing an appropriate internal standard (IS) was added to precipitate protein and release compound and mixed by vortexing the plate for 10 minutes followed by centrifugation for 30 minutes at 4,000 rpm. 250 μL of the supernatant was transferred to new 96-well plates and centrifuged again (4,000 rpm, 30 minutes). 100 μL of the supernatant was then transferred to new 96-well plates and mixed with 100 μL of distilled water to each sample by vortex for 5 minutes at 1,000 rpm. Samples were analysed by LC-MS/MS and drug concentrations were determined vs a calibration curve produced from spiked blank plasma with a typical range of 1-7500 nM.
The % unbound was determined as % Unbound=(Conc. buffer chamber/Conc. plasma chamber)×100%. Fraction unbound=% unbound/100.
The principle for the method for the determination of volume unbound in brain slices has previously been published (Development of a High-Throughput Brain Slice Method for Studying Drug Distribution in the Central Nervous System; Fridén et al; Drug Metabolism and Disposition, 2009, 37 (6) 1226-1233). In brief:
Compound stock solutions were prepared in DMSO at the concentration of 10 mM. […] If less than 9 test compounds were included, then blank DMSO was added to make up volume to 40 uL. On the day of the experiment 4 ul was diluted in 40 mL ECF buffer to give a 100 nM solution of each test compounds which was then pre-warmed to 37° C. before the start of the incubation.
To prepare brain slices, rats weighing approximately 300 g were terminally anesthetised with isoflurane by inhalation, the brain carefully removed and immersed in ice-cold oxygenated ECF buffer. The rat brain was transferred to a dish containing ice-cold, 02 supplied ECF buffer and trimmed with razor before gluing to the tray of a microslicer with the brain placed with the back section surface down centrally on the tray. Ice cold ECF buffer was added to harden the glue and wet the brain. The tray was placed in the microslicer and using a suitable cutting speed, 100-400 μm were cut slices until the striatum area appeared. Four to six for each brain, 300 μm thick, coronal slices of striatum areas were cut and placed in ice cold 02 supplied buffer until incubation. Six slices were transferred to the incubation tray containing 40 mL pre warmed (37° C.) cassette mixture. […]

[6] = molecular target: PARP2 (Homo sapiens (Human), UniProt Q9UGN5); assay: PARP fluorescence anisotropy binding assay, PARP2
Method: as §1, with “PARP2” for “GST tagged PARP6”, “6” for “160”, “2” for “6”, “MgCl2,” for “MgCI2,”
Fluorescence anisotropy of the probe when bound to the proteins was measured using a BMG Pherastar FSX® in the presence of test compounds or solvent control and the effect on anisotropy determined. % inhibition values for different test compound concentrations were calculated and fitted to a four parameter logistic plot in order to determine the IC50 value.

[7] = molecular target: PARP5a (Homo sapiens (Human), UniProt O95271); assay: PARP fluorescence anisotropy binding assay, PARP5a
Method: Recombinant PARP5a binding domain was diluted to 160 nM with 50 mM Tris pH 8, 0.001% Triton X100, 10 mM MgCl2, 150 mM NaCl and incubated for four hours with an equivalent volume of 6 nM fluorescent probe diluted with 50 mM Tris pH 8, 0.001% Triton X100, 10 mM MgCl2, 150 mM NaCl. The final DMSO concentration of the probe was kept below 1% (v/v).

[8] = molecular target: hERG (Homo sapiens (Human), UniProt Q12809); assay: hERG IC50
[9] = system: BRCA2 (−/−) DLD1 cells; assay: PARP proliferation assay (7 day compound dosing), BRCA2 (−/−) DLD1; assay type: cell-based; settings: Homo sapiens, DLD-1, 168 h, read-out: BRCA2 −/− DLD-1 prolif. 7 d IC50
Method: DLD1 and BRCA2 (−/−) DLD1 cells were harvested to a density of 5000 cells/ml and 2.5E4 cells/ml respectively in complete media, 40 μL/well seeded into 384-well plates (Greiner, Kremsmunster, Austria; 781090) using a Multidrop Combi then incubated at 37° C., 5% CO2 overnight. Next day (Day 1) using a Multidrop Combi add sytox green (5ul, 2 uM) and saponin (10 ul, 0.25% stock) to a day 0 plate, seal the plate using a black adhesive lid and incubate for >3 h at it. Cells were imaged using Cell Insight (Thermo Fisher) fitted with a 4x objective. Test compounds are added using an Echo 555 and placed in incubator maintained at 37° C., 5% CO2 and incubated for 7 days. On Day 8 add sytox green (5ul, 2 uM) and then saponin (10 ul, 0.25% stock) to plates, seal the plate using a black adhesive lid and incubate for >3 h at it. Read all cells on the Cell Insight with 4× Objective. The rate of proliferation is determined in Genedata by assessing the total cell number output from the Cell Insight for Day 0 and Day 8 plates.

[10] = system: U87MG xenograft; assay type: in vivo, female Nude mice
Method: U87MG cells (2.5 million in serum-free MEM medium) were implanted subcutaneously (SC) into the dorsal flank of female Nude mice (weight greater than 18 g). Tumours were measured (length x width) two times weekly by bilateral Vernier calliper measurements and tumour volume was calculated using elliptical formula (π/6×width×width×length). Animal bodyweight and tumour condition were monitored throughout the study. Mice were randomised into treatment groups when mean tumour volume reached approximately 0.2 cm^3.
Animals were treated orally (PO) from the day after the randomisation. Control animals were treated with vehicle (water/methane sulfonic acid (MSA) pH3-3.2) once daily for 10 days (QD×10). PARP inhibitor in water/MSA pH3-3.2 was dosed in the monotherapy and combination groups at 3 mg/kg QD×10 or QD×33, respectively. Temozolomide (TMZ) in OraPlus Perrigo was dosed in the monotherapy group at 25 mg/kg QD on days 1-5 and 29-33, and in monotherapy and combination group at 6.25 mg/kg QD on days 1-5 and 29-33.
Tumour growth inhibition from start of treatment was assessed by comparison of the mean change in tumour volume (TV) of the control and treated groups and represented as percent tumour growth inhibition (TGI, when tumour volume (TV) >starting TV) or tumour regression (reg, when TV<starting TV). Statistical significance was evaluated using a one-tailed t test. Statistical significance is indicated as follows: *p:0.05, **p:0.01, ***p:0.001.

[11] = TMZ 6.25 mg/kg QD on days 1-5 and 29-33, PO
[12] = TMZ 25 mg/kg QD on days 1-5 and 29-33, PO

Chain of PARP1 (P09874 whole entry): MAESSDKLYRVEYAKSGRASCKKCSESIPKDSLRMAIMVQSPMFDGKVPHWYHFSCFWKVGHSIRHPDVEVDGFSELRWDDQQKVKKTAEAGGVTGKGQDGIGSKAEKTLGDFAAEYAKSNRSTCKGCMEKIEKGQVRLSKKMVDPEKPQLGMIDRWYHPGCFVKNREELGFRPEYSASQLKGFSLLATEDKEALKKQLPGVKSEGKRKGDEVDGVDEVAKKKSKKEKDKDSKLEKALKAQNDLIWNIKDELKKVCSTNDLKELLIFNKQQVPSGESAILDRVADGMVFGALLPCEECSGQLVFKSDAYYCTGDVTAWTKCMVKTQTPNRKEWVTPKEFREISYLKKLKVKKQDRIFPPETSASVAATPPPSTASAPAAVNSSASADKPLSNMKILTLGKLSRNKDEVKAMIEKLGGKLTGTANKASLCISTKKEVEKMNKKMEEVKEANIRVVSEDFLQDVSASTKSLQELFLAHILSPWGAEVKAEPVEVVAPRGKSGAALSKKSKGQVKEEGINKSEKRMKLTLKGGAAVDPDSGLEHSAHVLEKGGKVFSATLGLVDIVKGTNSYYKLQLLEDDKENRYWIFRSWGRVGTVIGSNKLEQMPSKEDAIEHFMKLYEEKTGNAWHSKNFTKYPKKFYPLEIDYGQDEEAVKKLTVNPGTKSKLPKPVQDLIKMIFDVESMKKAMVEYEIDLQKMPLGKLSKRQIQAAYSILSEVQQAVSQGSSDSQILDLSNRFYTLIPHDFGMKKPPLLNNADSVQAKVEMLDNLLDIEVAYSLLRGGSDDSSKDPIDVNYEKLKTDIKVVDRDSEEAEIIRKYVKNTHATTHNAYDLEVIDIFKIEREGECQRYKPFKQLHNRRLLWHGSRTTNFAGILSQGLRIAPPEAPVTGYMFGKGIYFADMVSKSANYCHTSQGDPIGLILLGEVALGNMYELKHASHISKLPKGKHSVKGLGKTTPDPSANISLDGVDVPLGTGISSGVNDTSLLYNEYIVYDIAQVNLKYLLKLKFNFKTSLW
Chain of PARP2 (Q9UGN5 whole entry): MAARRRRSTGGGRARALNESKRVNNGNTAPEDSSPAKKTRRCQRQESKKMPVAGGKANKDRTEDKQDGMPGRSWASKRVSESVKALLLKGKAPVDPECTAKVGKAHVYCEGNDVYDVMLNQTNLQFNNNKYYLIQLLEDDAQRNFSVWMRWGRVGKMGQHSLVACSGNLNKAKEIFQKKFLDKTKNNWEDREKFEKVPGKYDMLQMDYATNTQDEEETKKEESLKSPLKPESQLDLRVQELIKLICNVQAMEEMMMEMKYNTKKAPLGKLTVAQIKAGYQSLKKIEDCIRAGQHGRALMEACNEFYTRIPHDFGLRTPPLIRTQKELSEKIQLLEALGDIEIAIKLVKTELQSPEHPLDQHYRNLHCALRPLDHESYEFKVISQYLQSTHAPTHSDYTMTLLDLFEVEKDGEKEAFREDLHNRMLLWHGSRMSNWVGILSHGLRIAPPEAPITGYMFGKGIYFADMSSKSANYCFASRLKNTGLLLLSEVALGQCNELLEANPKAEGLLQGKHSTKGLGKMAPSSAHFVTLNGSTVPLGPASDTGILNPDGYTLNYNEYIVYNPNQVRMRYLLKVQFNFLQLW
Chain of PARP3 (Q9Y6F1 whole entry): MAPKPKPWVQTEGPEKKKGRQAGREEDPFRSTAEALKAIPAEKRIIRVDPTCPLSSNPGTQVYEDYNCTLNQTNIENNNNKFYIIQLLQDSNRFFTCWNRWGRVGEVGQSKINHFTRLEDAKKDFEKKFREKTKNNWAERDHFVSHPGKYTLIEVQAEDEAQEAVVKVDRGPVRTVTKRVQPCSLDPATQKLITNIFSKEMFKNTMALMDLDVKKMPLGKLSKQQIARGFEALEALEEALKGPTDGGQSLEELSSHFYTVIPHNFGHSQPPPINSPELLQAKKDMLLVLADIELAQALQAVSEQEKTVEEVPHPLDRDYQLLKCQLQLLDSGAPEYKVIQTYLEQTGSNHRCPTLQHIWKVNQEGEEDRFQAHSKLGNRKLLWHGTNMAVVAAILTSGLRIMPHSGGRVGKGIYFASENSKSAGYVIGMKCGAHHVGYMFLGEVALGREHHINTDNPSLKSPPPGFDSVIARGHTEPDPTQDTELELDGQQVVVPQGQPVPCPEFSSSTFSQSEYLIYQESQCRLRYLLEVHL
Chain of PARP6 (Q2NL67 whole entry): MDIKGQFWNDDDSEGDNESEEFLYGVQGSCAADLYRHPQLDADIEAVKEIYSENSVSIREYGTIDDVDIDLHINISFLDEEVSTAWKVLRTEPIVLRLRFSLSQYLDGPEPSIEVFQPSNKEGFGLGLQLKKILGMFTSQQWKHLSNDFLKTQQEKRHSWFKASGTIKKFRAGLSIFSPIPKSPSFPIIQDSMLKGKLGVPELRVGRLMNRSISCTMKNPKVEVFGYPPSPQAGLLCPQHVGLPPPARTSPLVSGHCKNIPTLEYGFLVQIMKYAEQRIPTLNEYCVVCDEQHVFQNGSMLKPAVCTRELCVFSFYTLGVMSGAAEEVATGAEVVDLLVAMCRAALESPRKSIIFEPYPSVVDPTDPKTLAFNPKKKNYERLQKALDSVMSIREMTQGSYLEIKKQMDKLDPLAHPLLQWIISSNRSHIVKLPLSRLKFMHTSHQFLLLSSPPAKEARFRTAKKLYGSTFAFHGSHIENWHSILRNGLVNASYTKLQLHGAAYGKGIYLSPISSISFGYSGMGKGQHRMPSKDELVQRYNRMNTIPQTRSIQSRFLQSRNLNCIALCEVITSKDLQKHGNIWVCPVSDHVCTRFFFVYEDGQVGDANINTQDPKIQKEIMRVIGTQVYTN
Chain of PARP5a (O95271 1112-1317): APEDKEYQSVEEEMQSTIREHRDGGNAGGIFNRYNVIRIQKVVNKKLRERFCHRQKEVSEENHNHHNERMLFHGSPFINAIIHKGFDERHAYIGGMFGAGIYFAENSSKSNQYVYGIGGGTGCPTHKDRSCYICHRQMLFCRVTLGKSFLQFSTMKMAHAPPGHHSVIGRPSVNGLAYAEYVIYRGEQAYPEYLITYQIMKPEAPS
Chain of hERG (Q12809 whole entry): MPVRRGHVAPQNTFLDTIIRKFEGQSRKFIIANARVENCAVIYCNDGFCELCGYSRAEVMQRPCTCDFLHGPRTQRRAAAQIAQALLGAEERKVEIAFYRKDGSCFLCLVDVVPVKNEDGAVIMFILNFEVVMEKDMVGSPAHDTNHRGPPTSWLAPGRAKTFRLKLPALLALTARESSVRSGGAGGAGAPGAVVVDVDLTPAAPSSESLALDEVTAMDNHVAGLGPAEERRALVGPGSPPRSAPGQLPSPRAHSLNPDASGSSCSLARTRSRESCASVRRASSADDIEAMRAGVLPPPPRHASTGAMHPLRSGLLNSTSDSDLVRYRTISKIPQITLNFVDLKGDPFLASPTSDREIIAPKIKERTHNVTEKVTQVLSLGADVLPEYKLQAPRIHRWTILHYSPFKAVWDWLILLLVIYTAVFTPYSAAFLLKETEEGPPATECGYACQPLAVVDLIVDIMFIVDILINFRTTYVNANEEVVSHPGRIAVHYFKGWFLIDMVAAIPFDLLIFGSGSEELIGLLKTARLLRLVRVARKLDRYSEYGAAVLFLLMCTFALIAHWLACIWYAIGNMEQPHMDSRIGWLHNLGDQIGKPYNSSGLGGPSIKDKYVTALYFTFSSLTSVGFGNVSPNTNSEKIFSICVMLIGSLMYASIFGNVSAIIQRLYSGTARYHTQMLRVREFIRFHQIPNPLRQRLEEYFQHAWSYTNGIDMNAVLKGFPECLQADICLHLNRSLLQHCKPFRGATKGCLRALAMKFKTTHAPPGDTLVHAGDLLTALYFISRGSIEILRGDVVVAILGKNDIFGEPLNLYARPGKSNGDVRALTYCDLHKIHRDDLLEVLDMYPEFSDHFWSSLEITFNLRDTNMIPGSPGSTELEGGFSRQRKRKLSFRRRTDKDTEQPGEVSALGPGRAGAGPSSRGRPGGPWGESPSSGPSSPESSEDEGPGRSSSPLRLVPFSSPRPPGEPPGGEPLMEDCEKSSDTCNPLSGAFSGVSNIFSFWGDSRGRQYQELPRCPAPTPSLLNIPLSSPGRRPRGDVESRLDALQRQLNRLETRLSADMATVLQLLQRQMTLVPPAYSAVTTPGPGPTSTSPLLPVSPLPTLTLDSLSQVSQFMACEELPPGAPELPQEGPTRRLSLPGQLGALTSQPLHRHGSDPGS

| IC50 [1] [nM] | IC50 [2] [µM] | IC50 [3] [µM] | efflux ratio at 90 min [4] | Kp uu at 4 h [5] | IC50 [6] [µM] | IC50 [7] [µM] | Rat Kpuu [5] | IC50 [9] [nM] | Structure (SMILES) | IC50 [8] [µM] | tumour regression [10, 11] [%] | tumours regressed [10, 11] | tumour regression [10, 12] [%] | tumours regressed [10, 12] |
| --- | --- | --- | --- | --- | --- | --- | --- | --- | --- | --- | --- | --- | --- | --- |
| 4 | > 100 | > 100 | 0.7 | 0.07 | > 70 | > 100 | – | – | CNC(=O)c1ccc(N2CCN(Cc3ccc4nc(C)c(=O)[nH]c4c3C)CC2)c(F)n1 [Example 1, 5-[4-[(2,5-dimethyl-3-oxo-4H-quinoxalin-6-yl)methyl]piperazin-1-yl]-6-fluoro-N-methyl-pyridine-2-carboxamide] | – | – | – | – | – |
| 5 | 78 | > 100 | 0.8 | 0.13 | > 83 | > 100 | – | – | CNC(=O)c1ccc(N2CCN(Cc3ccc4nc(C)c(=O)[nH]c4c3C)CC2)c(C)n1 [Example 4, 5-[4-[(2,5-dimethyl-3-oxo-4H-quinoxalin-6-yl)methyl]piperazin-1-yl]-N,6-dimethyl-pyridine-2-carboxamide] | – | – | – | – | – |
| 5 | – | – | – | – | – | – | – | – | CNC(=O)c1ccc(N2CCN(Cc3ccc4nc(C)c(=O)[nH]c4c3Cl)CC2)c(C)n1 [Example 18, 5-[4-[(5-chloro-2-methyl-3-oxo-4H-quinoxalin-6-yl)methyl]piperazin-1-yl]-N,6-dimethyl-pyridine-2-carboxamide] | 14 | – | – | – | – |
| 5 | > 100 | > 100 | 0.8 | 0.62 | > 67 | > 100 | – | – | CCc1nc2ccc(CN3CCN(c4ccc(C(=O)NC)nc4C)CC3)c(F)c2[nH]c1=O [Example 23, 5-[4-[(2-ethyl-5-fluoro-3-oxo-4H-quinoxalin-6-yl)methyl]piperazin-1-yl]-N,6-dimethyl-pyridine-2-carboxamide] | – | – | – | – | – |
| – | > 100 | > 100 | – | – | – | > 100 | 0.43 | – | CCc1nc2ccc(CN3CCN(c4ccc(C(=O)NC)nc4F)CC3)c(F)c2[nH]c1=O [Example 27, 5-[4-[(2-ethyl-5-fluoro-3-oxo-4H-quinoxalin-6-yl)methyl]piperazin-1-yl]-6-fluoro-N-methyl-pyridine-2-carboxamide] | – | – | – | – | – |
| 15 | > 100 | > 100 | 0.7 | 0.33 | > 100 | > 100 | – | – | CCc1nc2ccc(CN3CCN(c4ccc(C(=O)NC)nc4)CC3)c(F)c2[nH]c1=O [Example 29, 5-[4-[(2-ethyl-5-fluoro-3-oxo-4H-quinoxalin-6-yl)methyl]piperazin-1-yl]-N-methyl-pyridine-2-carboxamide] | – | – | – | – | – |
| 7 | > 100 | > 100 | 1.6 | – | > 100 | > 100 | 0.19 | 7 | CNC(=O)c1ccc(N2CCN(Cc3ccc4nc(C)c(=O)[nH]c4c3F)CC2)c(C)n1 [Example 31, 5-[4-[(5-fluoro-2-methyl-3-oxo-4H-quinoxalin-6-yl)methyl]piperazin-1-yl]-N,6-dimethyl-pyridine-2-carboxamide] | – | – | – | – | – |
| 26 | – | – | – | – | > 100 | – | – | – | CNC(=O)c1ccc(N2CCN(Cc3ccc4ncc(=O)[nH]c4c3F)CC2)c(Cl)n1 [Example 34, 6-chloro-5-[4-[(5-fluoro-3-oxo-4H-quinoxalin-6-yl)methyl]piperazin-1-yl]-N-methyl-pyridine-2-carboxamide] | 29 | – | – | – | – |
| – | – | – | – | – | – | – | – | – | Cn1nnc2c(C(N)=O)ncn2c1=O [TMZ, Temozolomide] | – | 28 | 2/8 | 92 | 7/8 |

Source: patent US20250082630A1, “METHODS OF TREATING BRAIN TUMOURS AND NEUROBLASTOMAS” (AstraZeneca AB, priority 2021, published 2025)
